Experimental findings from patent publication US11103511B2, “Substituted indolo[2,1-b]quinazolines as inhibitors of tryptophan dioxygenase and indoleamine 2,3-dioxygenase 1” (FUDAN UNIVERSITY, priority 2017, dated 2021) are described below.

Assay [1] concerns the target T1, IDO2 (Homo sapiens, UniProt Q6ZQW0).
T1 construct: made in house
T1 sequence (Q6ZQW0 1-407): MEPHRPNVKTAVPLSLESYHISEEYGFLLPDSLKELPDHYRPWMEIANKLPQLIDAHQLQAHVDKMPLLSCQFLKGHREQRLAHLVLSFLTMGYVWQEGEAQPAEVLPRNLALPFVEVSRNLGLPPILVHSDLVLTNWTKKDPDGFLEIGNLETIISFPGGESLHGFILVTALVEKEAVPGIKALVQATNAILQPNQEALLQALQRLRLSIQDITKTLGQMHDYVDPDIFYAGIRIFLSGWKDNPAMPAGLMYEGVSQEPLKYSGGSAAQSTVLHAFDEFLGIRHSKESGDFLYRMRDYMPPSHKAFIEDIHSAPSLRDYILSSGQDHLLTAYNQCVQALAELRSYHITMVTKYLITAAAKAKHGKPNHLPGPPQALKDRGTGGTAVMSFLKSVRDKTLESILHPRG
The assay is described as follows: Half effective inhibitory concentration IC50 (cell) of IDO2, transfected U87 MG cells. The assay is classed as cell-based. The note with it: U87 MG cells transfected with pcDNA3.1(+)-IDO2, 24 h; read-out: IC50 Cellular IDO2. How it is done:
The nucleotide sequences of IDO1, IDO2, and TDO have been disclosed. […] U87 MG cell line (ATCC No.: HTB-14) was cultured in DMEM high-sugar medium containing 10% fetal bovine serum in a 37° C., 5% CO2 incubator. The cells were blown evenly into 6-well plate, and transfected when the cells grew to 80%-90% fusion. […] The cells were cultured in 37° C., 5% CO2 incubator for 6 h, and the medium was changed into DMEM medium containing 10% serum after adherence. […] Test compounds (including compounds of the present invention, […] and D-1-MT) at different concentration gradients were added and the total volume of each well was supplemented to 200 μl with cell culture medium containing L-tryptophan (200 μM of final concentration, sterilized by filtration). After incubated for 24 h, 140 μL of supernatant was taken into another 96-well plate, 10 μL of 30% (w/v) trichloroacetic acid was added, heated at 65° C. for 15 min, and centrifuged at 13800×g for 5 minutes. […] The experimental grouping was pcDNA3.1 (+)-IDO2 transfected group (experimental group), pcDNA3.1 (+) transfected group (empty plasmid control group), and non-transfected group (blank control group). Each group had three repeated well. The inhibitory rate was plotted against the inhibitor concentration, and the IC50 value was calculated by modified Karber method.

For assay [2], the target named is T1, IDO2. The assay is described as follows: Half effective inhibitory concentration IC50 (enzyme level) of IDO2. It is filed as biochemical. The note with it: human IDO2, pH 7.5, read-out: IC50 enzymatic IDO2. Here is the method: After the mixed solution was in water bath at 37° C. for 5 min, IDO2 was added to mixed solution and reacted at 37° C. for 30 min. After the enzymatic reaction was completed, 200 μL of 30% (w/v) trichloroacetic acid was added to terminate the reaction. Then the reaction mixture was heated in a 65° C. water bath for 15 min to make the reaction product transform from N-formyl-kynurenine to kynurenine, and centrifuged at […] for 10 min. 100 μL of supernatant was draw and mixed with equal volume of 2‰ (w/v) p-dimethylaminobenzaldehyde in acetic acid completely.

Assay [3] addresses T2, hTDO (Homo sapiens, UniProt P48775).
T2 construct: made in house
The assay is described as follows: Half effective inhibitory concentration IC50 (enzyme level) of TDO. It is filed as biochemical. The settings on record: pH 7.0, NI means of no inhibitory activity, read-out: IC50 enzymatic TDO. How it is done: The nucleotide sequences of IDO1, IDO2, and TDO have been disclosed. The active IDO1, IDO2, and TDO in the Examples are human IDO1, IDO2, and TDO, and can be prepared by conventional molecular cloning methods.
In a 500 μL of standard detection system, 50 mmol/L potassium phosphate buffer (pH 7.0), 200 μg/mL catalase, 40 mmol/L ascorbic acid, 20 μmol/L methylene blue, substrate L-tryptophan with suitable concentration and hTDO inhibitors to be tested were mixed. After the mixed solution was warmed in water bath at 37° C. for 5 min, hTDO was added to react at 37° C. for 30 min. After the enzymatic reaction was completed, […] (w/v) trichloroacetic acid was added to terminate the reaction. Then the reaction mixture was heated in a 65° C. water bath for 15 min to make the reaction product transform from N-formyl-kynurenine to kynurenine, and centrifuged at […] for 10 min. 100 μL of supernatant was draw and mixed with equal volume of 2‰ (w/v) p-dimethylaminobenzaldehyde in acetic acid completely. The kynurenine can reacted with the solution and turned the mixed solution to yellow, and the absorbance was measured at 492 nm by microplate reader. The inhibitory rate was plotted against the inhibitor concentration, and the IC50 value was calculated by modified Karber method, the experimental results were shown in Table 1.

The target in assay [4] is T2, hTDO. Briefly: Half effective inhibitory concentration IC50 (cell) of TDO, transfected HEK293 cells. It is filed as cell-based. The note with it: HEK293 cells transfected with pcDNA3.1(+)-hTDO, 5 h; NI means of no inhibitory activity; read-out: IC50 Cellular TDO. Here is the method: The nucleotide sequences of IDO1, IDO2, and TDO have been disclosed. The active IDO1, IDO2, and TDO in the Examples are human IDO1, IDO2, and TDO, and can be prepared by conventional molecular cloning methods. HEK293 cell line was cultured in DMEM high-sugar medium containing 10% fetal bovine serum in a 37° C., 5% CO2 incubator. The cells were blown evenly into 6-well plates, and transfected when the cells grew to 80%-90% fusion. The operation was carried out according to the instructions of Lipofectamine 2000 while improved slightly: the serum-containing medium was draw out and the cells were washed twice with PBS, and 1500 μL of serum-free medium was added to each well. […] The cells were cultured in 37° C., 5% CO2 incubator for 4-6 h, and then the medium was changed into DMEM medium containing 10% serum. […] Test compounds (including compounds of the present invention, […] and INCB023460) at different concentration gradients were added and the total volume of each well was supplemented to 200 μl with cell culture medium. After incubated for 5 h, 140 μL of supernatant was taken into another 96-well plate, 10 μL of 30% (w/v) trichloroacetic acid was added, heated at 65° C. for 15 min, and centrifuged at 13800×g for 5 minutes. 100 μL of supernatant was mixed with equal volume of 2‰ (w/v) […] acetic acid solution, the absorbance was measured at 492 nm by microplate reader after fully mixing. The experimental grouping was pcDNA3.1 (+)-hTDO transfected group (experimental group), pcDNA3.1 (+) transfected group (plasmid-empty control group), and non-transfected group (blank control group). Each group had three repeated well. The inhibitory rate was plotted against the inhibitor concentration, and the IC50 value was calculated by modified Karber method, the experimental results were shown in Table 1.

Assay [5] has as its target T1, IDO2. Briefly: Determination of IDO2 inhibitor type and Ki value. It is filed as biochemical. The settings on record: [S]/V~[i] map, L-tryptophan 20-40 mM. How it is done:
(§1) The nucleotide sequences of IDO1, IDO2, and TDO have been disclosed.
After the mixed solution was in water bath at 37° C. for 5 min, 10 μL of IDO2 (about 1 μM) was added to mixed solution and reacted at 37° C. for 30 min. After the enzymatic reaction was completed, 200 μL of 30% (w/v) trichloroacetic acid was added to terminate the reaction. Then the reaction mixture was heated in 65° C. water bath for 15 min to make the reaction product transform from N-formyl-kynurenine to kynurenine, and centrifuged at […] for 10 min. 100 μL of supernatant was draw and mixed with equal volume of 2‰ (w/v) p-dimethylaminobenzaldehyde in acetic acid completely. […] The inhibitor type was determined by Dixon mapping method (1/v˜[i]); the Ki value of inhibitor was obtained by [S]/V˜[i] map.

For assay [6], the target named is T3, IDO1 (Homo sapiens, UniProt P14902). The assay is described as follows: Cellular IC50 of IDO1. It is filed as cell-based.
Description: as §1
(§2) The IC50 test of IDO1 can be performed with reference to existing methods in the art, such as the method described in Chinese Patent NO.

For assay [7], the target named is T3, IDO1. Briefly: IC50 (enzyme level) of IDO1. The note with it: read-out: IC50 enzymatic IDO1. It is filed as biochemical.
Description: as §1, §2

The target in assay [8] is T3, IDO1. The assay is described as follows: Ki value of IDO1. The assay is classed as biochemical.
Description: as §1, §2

[9] abbreviates: cellular, read-out: IC50 Cellular IDO1.

pIC50, pKi: −log10 of the molar value.

As a reminder, the pIC50 is the negative decadic logarithm of the IC50, by convention in mol/L. By pKi is commonly meant the Ki on a negative log10 scale, so that one unit is a factor of ten.

T3 sequence (P14902 whole entry): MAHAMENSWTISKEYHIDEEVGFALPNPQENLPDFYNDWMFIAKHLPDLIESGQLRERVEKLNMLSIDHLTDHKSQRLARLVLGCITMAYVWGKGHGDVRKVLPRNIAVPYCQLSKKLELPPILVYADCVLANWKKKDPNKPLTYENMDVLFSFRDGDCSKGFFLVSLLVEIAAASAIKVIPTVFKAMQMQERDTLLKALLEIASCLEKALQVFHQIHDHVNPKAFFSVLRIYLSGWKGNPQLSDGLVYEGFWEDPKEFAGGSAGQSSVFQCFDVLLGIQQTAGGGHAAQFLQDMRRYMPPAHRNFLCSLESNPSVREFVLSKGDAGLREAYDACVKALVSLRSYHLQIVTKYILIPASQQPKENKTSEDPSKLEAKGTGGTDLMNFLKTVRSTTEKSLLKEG
T2 sequence (P48775 whole entry): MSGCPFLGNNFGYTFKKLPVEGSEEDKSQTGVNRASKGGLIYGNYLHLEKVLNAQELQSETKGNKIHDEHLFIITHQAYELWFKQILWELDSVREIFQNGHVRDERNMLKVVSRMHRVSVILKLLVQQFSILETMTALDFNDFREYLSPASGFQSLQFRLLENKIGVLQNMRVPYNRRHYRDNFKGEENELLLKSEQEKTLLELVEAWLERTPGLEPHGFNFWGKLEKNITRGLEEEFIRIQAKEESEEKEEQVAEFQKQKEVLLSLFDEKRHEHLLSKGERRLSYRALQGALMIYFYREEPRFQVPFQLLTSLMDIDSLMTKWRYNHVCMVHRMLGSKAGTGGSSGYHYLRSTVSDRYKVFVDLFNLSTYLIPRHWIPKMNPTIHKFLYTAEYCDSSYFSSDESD

Take `CN1CCN(Cc2ccc3nc4n(c(=O)c3c2)-c2ccc(F)cc2C4=O)CC1` [1a]: the pIC50 on IDO2 [1] was 4.73; at IDO2 [2] it was 4.73; at hTDO [3], 6.12; on hTDO [4] it was 7.03; against IDO1 [6], 7.66. This molecule gave a pKi at IDO2 [5] of 5.20.
Consider `O=C1c2cc(F)ccc2-n2c1nc1ccc(CN3CCNCC3)cc1c2=O` [1b], for which the pIC50 on IDO2 [1] is 5.45; at IDO2 [2] it was 4.50; on hTDO [3] it was 6.06; on hTDO [4] it was 7.04. At IDO2 [5], the pKi is 5.71.
As to `CC(C)(C)OC(=O)N1CCN(Cc2ccc3nc4n(c(=O)c3c2)-c2ccc(F)cc2C4=O)CC1` [1c], the pIC50 at IDO2 [1] was 5.09; at IDO2 [2], 4.20; on hTDO [3], 6.35; on hTDO [4], 7.17; against IDO1 [6], 6.88. The molecule further gave a pKi at IDO2 [5] of 5.21.
`CN1CCN(Cc2ccc3nc4n(c(=O)c3c2)-c2ccccc2C4=O)CC1` [1d]: the pIC50 at IDO2 [1] is 4.63; at IDO2 [2] it was 4.33; on hTDO [3] it was 5.62; on hTDO [4] it was 6.74; on IDO1 [6] (setting [9]) it was 6.75. On IDO2 [5], this molecule showed a pKi of 5.05.
Consider `CN(C)Cc1ccc2nc3n(c(=O)c2c1)-c1ccc(F)cc1C3=O` [1e], for which the pIC50 is 5.42 on IDO2 [1], 4.85 on IDO2 [2], 6.39 on hTDO [3] and 7.20 on hTDO [4]. The molecule further gave a pKi at IDO2 [5] of 5.36.
The like results for `O=C1c2cc(F)ccc2-n2c1nc1ccc(CN3CCOCC3)cc1c2=O` [1f] were, in that order, 4.78, 4.40, 6.06, 7.15 and 4.76.
On to `O=C1c2cc(Cn3cc(-c4ccccc4)nn3)ccc2-n2c1nc1ccccc1c2=O` [3a], for which the pIC50 at IDO2 [1] is 4.32; at IDO2 [2], 4.01; on hTDO [3], 4.33; at IDO1 [7], 4.34; at hTDO [4], 6.16; on IDO1 [6] (setting [9]), 6.56. Further, the pKi on IDO1 [8] was 3.99.
Consider `O=C1c2cc(Cn3cc(-c4ccccc4)nn3)ccc2-n2c1nc1ccc(F)cc1c2=O` [3b], for which the pIC50 on IDO2 [1] was 4.30; at IDO2 [2], 4.00; at hTDO [3], 4.09; at IDO1 [7], 4.30; at hTDO [4], 5.86; on IDO1 [6] (setting [9]), 6.47. Besides, the pKi on IDO1 [8] was 4.02.
With `O=C1c2cc(F)ccc2-n2c1nc1ccc(Cn3cc(-c4ccccc4)nn3)cc1c2=O` [3c], the pIC50 is 4.38 at IDO2 [1]; 4.08 at IDO2 [2]; 4.40 on hTDO [3]; 4.41 on IDO1 [7]; 6.71 at hTDO [4]; 6.73 on IDO1 [6] (setting [9]). Also, the pKi at IDO1 [8] was 4.20.
For `Cc1ccc2nc3n(c(=O)c2c1)-c1ccc(Cn2cc(-c4ccccc4)nn2)cc1C3=O` [3d, 8-(4-phenyl-1H-1,2,3-triazol-1-methylene) -2-methyltryptanthrin], the pIC50 at IDO2 [1] was 4.17; at IDO2 [2], 3.87; on hTDO [3], 4.05; at IDO1 [7], 4.08; at hTDO [4], 5.84; at IDO1 [6] (setting [9]), 6.26. The molecule further had a pKi at IDO1 [8] of 4.01.
Regarding `O=C1c2cc(Cn3cc(-c4ccccc4)nn3)ccc2-n2c1nc1ccc(Br)cc1c2=O` [3e, 8-(4-phenyl-1H-1,2,3-triazol-1-methylene) -2-bromotryptanthrin], the pIC50 on IDO2 [1] was 4.29; on IDO2 [2], 3.99; on hTDO [3] it was 4.35; on IDO1 [7] it was 4.39; on hTDO [4], 6.15; at IDO1 [6] (setting [9]) it was 6.70.
For `O=C1c2cc(Cn3cc(-c4ccccc4)nn3)ccc2-n2c1nc1ccc(Cl)cc1c2=O` [3f, 8-(4-phenyl-1H-1,2,3-triazol-1-methylene) -2-chlorotryptanthrin], the pIC50 is 4.19 at IDO2 [1]; 3.90 at IDO2 [2]; 4.30 on hTDO [3]; 4.37 on IDO1 [7]; 6.15 on hTDO [4]; 6.61 at IDO1 [6] (setting [9]).
